Legend:
Jak2 JH2-WT = target: T1, Jak2 JH2-WT (Homo sapiens, UniProt O60674, F794H/W659A/W777A); experiment: mant-ATP binding (decrease of tryptophan emission by FRET) to JH2-WT; settings: fluorescent ATP analog mant-ATP, FIG. 5
T1 construct: 6xHis (N); made in house; host or cells: baculovirus-infected Sf9 cells
Protocol: FIG. 5 depicts ATP binding to JH2-WT. The decrease of the tryptophan emission signal at 340 nm (excitation wavelength at 285 nm) resulting from FRET upon mant-ATP binding to JH2 was measured as a function of mant-ATP concentration. The plotted data points are an average of two experiments.
(§1) As a first step in characterizing the catalytic properties of Jak2 JH2, dissociation constants (Kd values) for ATP binding to JH2-WT and -VF were obtained using the fluorescent ATP analog mant-ATP.

Jak2 JH2-VF (V617F) = target: T2, Jak2 JH2-VF (V617F) (Homo sapiens, UniProt O60674, F794H/V617F/W777A); experiment: mant-ATP binding to JH2-VF; settings: fluorescent ATP analog mant-ATP
T2 construct: 6xHis (N); made in house; host or cells: baculovirus-infected Sf9 cells
T2 sequence (O60674 536-812 V617F/W777A/F794H): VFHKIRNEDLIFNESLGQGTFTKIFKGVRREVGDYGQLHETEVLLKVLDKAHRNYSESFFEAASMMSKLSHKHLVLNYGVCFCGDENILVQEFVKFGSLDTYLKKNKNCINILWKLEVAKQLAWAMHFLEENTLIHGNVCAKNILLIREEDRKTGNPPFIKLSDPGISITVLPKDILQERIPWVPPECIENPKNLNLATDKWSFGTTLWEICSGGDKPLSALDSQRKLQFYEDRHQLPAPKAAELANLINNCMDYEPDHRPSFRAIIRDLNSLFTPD
Text: as §1

[1] = target: T3, insulin receptor kinase (phosphorylated, active form) (Homo sapiens, UniProt P06213); experiment: mant-ATP binding to insulin receptor kinase (comparison)
T3 construct: the insulin receptor kinase (phosphorylated, active form)
T3 sequence (P06213 1023-1298 limits assumed): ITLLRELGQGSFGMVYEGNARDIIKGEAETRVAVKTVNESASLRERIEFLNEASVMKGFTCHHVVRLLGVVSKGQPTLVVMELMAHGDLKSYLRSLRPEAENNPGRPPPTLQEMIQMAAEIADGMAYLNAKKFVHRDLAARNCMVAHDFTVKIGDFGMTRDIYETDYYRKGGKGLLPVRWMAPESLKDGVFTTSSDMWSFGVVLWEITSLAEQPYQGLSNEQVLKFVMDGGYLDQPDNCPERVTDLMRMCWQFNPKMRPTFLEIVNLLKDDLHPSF

JAK2 JH2 (JH2-Peak2) = target: T4, JAK2 JH2 (JH2-Peak2) (Homo sapiens, UniProt O60674); experiment: Mant-ATP binding assay (fluorescence) with JH2-Peak2
T4 construct: We produced and purified human Jak2 JH2, residues 513-824, as described previously; 6xHis (C, cleaved yes); made in house; host or cells: Sf9 insect cells (baculovirus, pFASTBAC1)
T4 sequence (O60674 513-824): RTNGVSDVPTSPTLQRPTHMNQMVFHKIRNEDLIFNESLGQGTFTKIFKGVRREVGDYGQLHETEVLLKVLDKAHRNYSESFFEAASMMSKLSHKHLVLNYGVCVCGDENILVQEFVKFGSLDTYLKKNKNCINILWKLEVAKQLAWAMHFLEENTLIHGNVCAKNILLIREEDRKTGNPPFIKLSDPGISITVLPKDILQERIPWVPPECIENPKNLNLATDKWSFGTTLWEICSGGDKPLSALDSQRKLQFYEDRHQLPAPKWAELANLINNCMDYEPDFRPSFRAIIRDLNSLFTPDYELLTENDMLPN
Protocol: FIG. 13 provides an analysis of JAK2 JH2 autophosphorylation and ATP binding activity. (a) Time-course kinase assay of purified JH2-Peak1 and JH2-Peak2. (b) Time-course kinase assay of purified JH2 S523A and Y570F mutants compared to JH2-Peak2. (c) Fluorescence measurement of ATP binding assay of JAK2 JH2-Peak2. (d) Kd measurement of mant-ATP binding to JH2-Peak2. Graph, mean±s.d. of three independent experiments.
The fluorescence intensity of mant-ATP (Invitrogen) complex with JH2 was measured using FluoroMax-2 spectrofluorimeter. Mant-ATP (1 μM) was added to a buffer solution (20 mM TRIS-HCl, pH 8, 200 mM NaCl, 10% (v/v) glycerol and 0.5 mM TCEP) along with 5 mM MnCl2 and 1 μM JH2 (from peak 2 fraction). The excitation and emission wavelengths were 280 nm and 440 nm, respectively, and emission was scanned from 400-500 nm. For kd measurements, increased concentration of purified JH2 (0.25 μM-6 μM) was added to buffer solution with 5 mM MnCl2 and 1 μM mant-ATP.
If the pseudokinase domain of JAK2 is an active protein kinase, utilizing ATP as a phosphate donor, it should bind ATP with a physiologic Kd value. The binding of ATP to JH2 of JAK2 was evaluated using the fluorescent ATP-analogue mant [2′-(3′)—O—(N-methylanthraniloy)]-ATP. […] Mant-ATP bound to JH2 with a Kd of ˜1 μM (FIG. 13d), which is ˜10% of the reported Kd for JH1 of JAK2 (Hall, et al., Protein Expr. Purif. 2010; 69: 54-63). […]

T1 sequence (O60674 536-812 W659A/W777A/F794H): as the sequence (O60674 536-812 V617F/W777A/F794H) above, with F82V, W124A counted along it

Kd (Jak2 JH2-WT): 82 nM
Kd (Jak2 JH2-VF (V617F)): 84 nM
Kd fold higher than for JH2 ([1]; insulin receptor kinase Kd versus Jak2 JH2 Kd): ~30 fold
Kd ([1]; insulin receptor kinase, phosphorylated active form, same measurement): 14000 nM
Kd (JAK2 JH2 (JH2-Peak2); JH2-Peak2, 5 mM MnCl2, 1 μM mant-ATP, JH2 0.25-6 μM, FIG. 13d): ~1000 nM
Kd as percentage of the reported Kd for JH1 of JAK2 (JAK2 JH2 (JH2-Peak2); JH2 Kd versus literature Kd for JH1 (Hall et al. 2010)): ~10%
Substance: mant [2′-(3′)—O—(N-methylanthraniloy)]-ATP [mant-ATP]
